Reference: patent publication US20220169639A1 (priority 2018, published 2022)

Tests used:
[1] = tested on: HBeAg (surrogate marker for cccDNA) in HepDES19 cells; assay: Engineered HepDES19 primary screen assay (HBeAg ELISA); type: cell-based, HBV; details: Hepatitis B virus, 120 h, HBeAg in culture supernatant, 5 days incubation, read-out: IC50 (HepDES19 primary screen assay, inhibition of extracellular HBeAg level)
Procedure, shortened: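 HepDES19 cells pre-induced by Tet withdrawal for 8 days, frozen, then seeded and dosed after 24 h with half-log compound dilutions (1% DMSO final). After 5 days at 37 °C, HBeAg measured by ELISA and viability by CCK-8; IC50 from 4-parameter logistic fit.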

[2] = tested on: HBV (HBsAg) in HBV-infected PHH; assay: Cryopreserved primary human hepatocytes (PHH) HBV infection assay, extracellular HBsAg (CLIA); type: cell-based; details: Hepatitis B virus, Hepatocyte, 216 h, read-out: HBsAg IC50
Experimental: This assay is used to confirm the anti-HBV effect of the compounds in HBV PHH infection assay. Cryopreserved PHH (BioreclamationIVT, Lot YJM) was thawed at 37° C. and gently transferred into pre-warmed InVitroGRO HT medium (BioreclamationIVT, Cat. S03317). The mixture was centrifuged at 70 relative centrifugal force (RCF) for 3 minutes at RT, and the supernatant was discarded. Pre-warmed InVitroGRO CP medium (BioreclamationIVT, Cat #S03316) was added to the cell pellet to gently re-suspend cells. The cells were seeded at the density of 5.8×10^4 cells per well to collagen I coated 96-well plate (Gibco, Cat. A1142803) with the InVitroGRO CP medium. All plates were incubated at 37° C. with 5% CO2 and 85% humidity.
At 20 hours after plating, the medium was changed to PHH culture medium (Dulbecco's Modified Eagle Medium (DMEM)/F12 (1:1) (Gibco, Cat. 11320-033), 10% fetal bovine serum (Gibco Cat. 10099141), 100 U/mL penicillin, 100 μg/mL streptomycin (Gibco, Cat. 151401-122), 5 ng/mL human epidermal growth factor (Invitrogen Cat. PHG0311L), 20 ng/mL dexamethasone (Sigma, Cat. D4902) and 250 ng/mL human recombinant insulin (Gibco, Cat. 12585-014)). And the cells were incubated at 37° C. with 5% CO2 and 85% humidity for 4 hours. The medium was then changed to pre-warmed PHH culture medium containing 4% polyethylene glycol (PEG) MW8000 (Sigma, Cat. P1458-50ML) and 1% DMSO (Sigma, Cat. D2650). 5.8×10^6 genomic equivalents of HBV were added into the medium.
At 24 hours post-infection, the cells were gently washed with PBS and refreshed with PHH culture medium supplemented with 1% DMSO, and 0.25 mg/mL Matrix gel (Corning, Cat. 356237) at 200 μL per well. All plates were immediately placed in at 37° C. CO2 incubator. 24 hours later, serial dilutions of compounds made with DMSO were further diluted with the same culture medium (PHH culture medium supplemented with 1% DMSO and 0.25 mg/mL Matrix gel as described above) before they were added to the cells to reach desired final compound concentrations and 1% DMSO concentration. The medium containing the compounds were refreshed every three days.
At 9 days post-compound treatment, extracellular HBsAg level were measured with Chemiluminescence Immuno Assay (CLIA) kit (Autobio, HBsAg Quantitative CLIA). Extracellular HBV DNA was extracted by MagNA Pure 96 system (Roche) and then determined
HBsAg IC50 and HBV DNA IC50 values were derived from the dose-response curve using 4 parameter logistic curve fit method. The compounds of formula (I) have HBsAg IC50<20 μM, particularly <1 μM; and HBV DNA IC50<50 μM. Results of Cryopreserved PHH assay are given in TableBIO2.

## C[S+]([O-])C1CCN(CCOc2cc(C(F)(F)F)ccc2-c2cc(=O)c3cccc(Cl)c3o2)CC1 (stereo not shown) [Example 093, 8-chloro-2-[2-[2-(4-methylsulfinyl-1-piperidyl)ethoxy]-4-(trifluoromethyl)phenyl]chromen-4-one]
[1]
  IC50: 5.98 µM
[2]
  IC50: 6.13 µM

## CS(=O)(=O)C1CCN(CCCOc2cc(C(F)(F)F)ccc2-c2cc(=O)c3cccc(Cl)c3o2)C1 (stereo not shown) [Example 088, 8-chloro-2-[2-[3-(3-methylsulfonylpyrrolidin-1-yl)propoxy]-4-(trifluoromethyl)phenyl]chromen-4-one]
[1]
  IC50: 0.27 µM
[2]
  IC50: 7.8 µM

## O=C(O)[C@@H]1CCN(CCOCCOc2cc(Br)ccc2-c2cc(=O)c3cccc(Cl)c3o2)C1 [Example 047, (3R)-1-[2-[2-[5-bromo-2-(8-chloro-4-oxo-chromen-2-yl)phenoxy]ethoxy]ethyl]pyrrolidine-3-carboxylic acid]
[1]
  IC50: 0.99 µM
[2]
  IC50: 2.83 µM

## O=C(O)C1CC(N2CCC(Oc3cc(Br)ccc3-c3cc(=O)c4cccc(Cl)c4o3)CC2)C1 (stereo not shown) [Example 131]
[1]
  IC50: 5.86 µM
[2]
  IC50: 5.05 µM

## O=C(O)C1CN(CCOc2cc(Br)ccc2-c2cc(=O)c3cccc(Cl)c3o2)C1 [Example 019, 1-[2-[5-bromo-2-(8-chloro-4-oxo-chromen-2-yl)phenoxy]ethyl]azetidine-3-carboxylic acid]
[1]
  IC50: 0.57 µM
[2]
  IC50: 7.13 µM

## O=C(O)[C@@H]1CCN(CCCOc2cc(C(F)(F)F)ccc2-c2cc(=O)c3cccc(Cl)c3o2)C1 [Example 013, (3R)-1-[3-[2-(8-chloro-4-oxo-chromen-2-yl)-5-(trifluoromethyl)phenoxy]propyl]pyrrolidine-3-carboxylic acid]
[1]
  IC50: 4.23 µM
[2]
  IC50: 7.35 µM

## O=C(O)C1CCC(NCCCOc2cc(C(F)(F)F)ccc2-c2cc(=O)c3cccc(Cl)c3o2)C1 (stereo not shown) [Example 007, 3-[3-[2-(8-chloro-4-oxo-chromen-2-yl)-5-(trifluoromethyl)phenoxy]propylamino]cyclopentanecarboxylic acid]
[1]
  IC50: 9.5 µM
[2]
  IC50: 4.95 µM

## O=C(O)CNCCCOc1cc(C(F)(F)F)ccc1-c1cc(=O)c2cccc(Cl)c2o1 [Example 125, 2-[3-[2-(8-chloro-4-oxo-chromen-2-yl)-5-(trifluoromethyl)phenoxy]propylamino]acetic acid]
[1]
  IC50: 2.03 µM
[2]
  IC50: 3.19 µM

## NS(=O)(=O)NCCCOc1cc(C(F)(F)F)ccc1-c1cc(=O)c2cccc(Cl)c2o1 [Example 160, 8-chloro-4-oxo-2-[2-[3-(sulfamoylamino)propoxy]-4-(trifluoromethyl)phenyl]chromene]
[1]
  IC50: 2.43 µM
[2]
  IC50: 10 µM

## O=C(O)[C@H]1CCN(CCCOc2cc(C(F)(F)F)ccc2-c2cc(=O)c3cccc(Cl)c3o2)C1 [Example 014, (3S)-1-[3-[2-(8-chloro-4-oxo-chromen-2-yl)-5-(trifluoromethyl)phenoxy]propyl]pyrrolidine-3-carboxylic acid]
[1]
  IC50: 0.37 µM
[2]
  IC50: 5.08 µM

## O=C(O)[C@@H]1CCN(CC(O)COc2cc(Br)ccc2-c2cc(=O)c3cccc(Cl)c3o2)C1 (stereo partly drawn) [Example 165, (3R)-1-[3-[5-bromo-2-(8-chloro-4-oxo-chromen-2-yl)phenoxy]-2-hydroxy-propyl]pyrrolidine-3-carboxylic acid]
[1]
  IC50: 3.19 µM
[2]
  IC50: 9.98 µM

## CC(NCCOc1cc(C(F)(F)F)ccc1-c1cc(=O)c2cccc(Cl)c2o1)C(=O)O (stereo not shown) [Example 057, 2-[2-[2-(8-chloro-4-oxo-chromen-2-yl)-5-(trifluoromethyl)phenoxy]ethylamino]propanoic acid]
[1]
  IC50: 1.5 µM

## O=C(O)C1CC(N(CCCOc2cc(C(F)(F)F)ccc2-c2cc(=O)c3cccc(Cl)c3o2)S(=O)(=O)C2CC2)C1 (stereo not shown) [Example 139, 3-[3-[2-(8-chloro-4-oxo-chromen-2-yl)-5-(trifluoromethyl)phenoxy]propyl-cyclopropylsulfonyl-amino]cyclobutanecarboxylic acid]
[1]
  IC50: 10.2 µM

## O=c1cc(-c2ccc(Br)cc2OC2CCN(S(=O)(=O)C3CC3)CC2)oc2c(Cl)cccc12 [Example 108]
[1]
  IC50: 1.14 µM

## O=C(NS(=O)(=O)C1CC1)C1CCCN1CCOc1cc(C(F)(F)F)ccc1-c1cc(=O)c2cccc(Cl)c2o1 (stereo not shown) [Example 072, 1-[2-[2-(8-chloro-4-oxo-chromen-2-yl)-5-(trifluoromethyl)phenoxy]ethyl]-N-cyclopropylsulfonyl-pyrrolidine-2-carboxamide]
[1]
  IC50: 2.89 µM

## O=c1cc(-c2ccccc2O)oc2cc(O)ccc12 [Example F-1, 7-hydroxy-2-(2-hydroxyphenyl)chromen-4-one, reference compound]
[1]
  IC50: > 50 µM

## COC(=O)NCCOc1cc(Br)ccc1-c1cc(=O)c2cccc(Cl)c2o1 [Example 105]
[1]
  IC50: 1.9 µM

## CCNS(=O)(=O)N(C)CCOc1cc(C)ccc1-c1cc(=O)c2cccc(Cl)c2o1 [Example 136, 8-chloro-2-[2-[2-[ethylsulfamoyl(methyl)amino]ethoxy]-4-methyl-phenyl]-4-oxo-chromene]
[1]
  IC50: 0.58 µM

## O=C(O)C(=O)NC1(COc2cc(C(F)(F)F)ccc2-c2cc(=O)c3cccc(Cl)c3o2)CC1 [Example 110, 2-[[1-[[2-(8-chloro-4-oxo-chromen-2-yl)-5-(trifluoromethyl)phenoxy]methyl]cyclopropyl]amino]-2-oxo-acetic acid]
[1]
  IC50: 3.76 µM

## O=C(O)C1CN(CCOc2ccccc2-c2cc(=O)c3cccc(Cl)c3o2)C1 [Example 033, 1-[2-[2-(8-chloro-4-oxo-chromen-2-yl)phenoxy]ethyl]azetidine-3-carboxylic acid]
[1]
  IC50: 1.09 µM

## Cc1cc(F)c(-c2cc(=O)c3cccc(Cl)c3o2)c(OCCNC(=O)C(=O)O)c1 [Example 112]
[1]
  IC50: 0.49 µM

## Cc1cc(-c2cc(=O)c3cccc(Cl)c3o2)c(OCCN2CCC[C@H]2C(=O)O)cc1Cl [Example 045]
[1]
  IC50: 6.5 µM

## O=c1cc(-c2ccc(C(F)(F)F)cc2OCCCN([C@H]2C[C@@H](C(=O)O)C2)S(=O)(=O)c2ccccc2)oc2c(Cl)cccc12 [Example 141]
[1]
  IC50: 0.35 µM

## CCOC(=O)C(=O)NCCOc1cc(OC)c(Br)cc1-c1cc(=O)c2cccc(Cl)c2o1 [Example 102]
[1]
  IC50: 2.91 µM

## O=C(O)c1cccc(CN2CCC(Oc3cc(Br)ccc3-c3cc(=O)c4cccc(Cl)c4o3)CC2)c1 [Example 128]
[1]
  IC50: 0.27 µM

## O=C(O)[C@H]1CCCN1CCCOc1cc(Br)ccc1-c1cc(=O)c2cccc(Cl)c2o1 [Example 003, (2R)-1-[3-[5-bromo-2-(8-chloro-4-oxo-chromen-2-yl)phenoxy]propyl]pyrrolidine-2-carboxylic acid]
[1]
  IC50: 2.41 µM

## CC(C)(COc1cc(C(F)(F)F)ccc1-c1cc(=O)c2cccc(Cl)c2o1)NC(=O)C(=O)O [Example 115]
[1]
  IC50: 1.04 µM

## CS(=O)(=O)NC(=O)[C@@H]1CCN(CCCOc2cc(C(F)(F)F)ccc2-c2cc(=O)c3cccc(Cl)c3o2)C1 [Example 065, (3R)-1-[3-[2-(8-chloro-4-oxo-chromen-2-yl)-5-(trifluoromethyl)phenoxy]propyl]-N-methylsulfonyl-pyrrolidine-3-carboxamide]
[1]
  IC50: 7.21 µM

## CC(C)COc1ccc(-c2cc(=O)c3cccc(Cl)c3o2)c(OCCN2CC[C@H](C(=O)O)C2)c1 [Example 040, (3S)-1-[2-[2-(8-chloro-4-oxo-chromen-2-yl)-5-isobutoxy-phenoxy]ethyl]pyrrolidine-3-carboxylic acid]
[1]
  IC50: 9.06 µM

## CC(C)[C@@H]1NC(=O)N(CCOc2cc(C(F)(F)F)ccc2-c2cc(=O)c3cccc(Cl)c3o2)C1=O [Example 153]
[1]
  IC50: 0.83 µM

## Cc1ccc(-c2cc(=O)c3cccc(Cl)c3o2)c(OCCCNC(=O)C(=O)O)c1 [Example 120]
[1]
  IC50: 2.96 µM

## CCOC(=O)C(=O)NCCCOc1cc(C)ccc1-c1cc(=O)c2cccc(Cl)c2o1 [Example 095, ethyl 2-[3-[2-(8-chloro-4-oxo-chromen-2-yl)-5-methyl-phenoxy]propylamino]-2-oxo-acetate]
[1]
  IC50: 9.3 µM
